The assay has as its target T1, catalytic domain of human MMP-13 (Homo sapiens, UniProt P45452).
T1 construct: the catalytic domain of human MMP-13
The assay can be described thus: Inhibition of proteolysis of a thioester peptide substrate by MMP-13. Type of assay: biochemical. The protocol:
Evaluation of the in vitro activity of the MMP-13 inhibitor compounds according to the invention.
The inhibitory activity of the compounds of formula (I) according to the invention with respect to matrix metalloprotease-13 is evaluated by testing the ability of the compounds of the invention to inhibit the proteolysis of a peptide substrate with MMP-13.
The peptide substrate used in the test is the following peptide: Ac-Pro-Leu-Gly-thioester-Leu-Leu-Gly-OEt.
To carry out this test, a reaction medium of 100 μl volume is prepared, containing: 50 mM of HEPES buffer, 10 mM of CaCl2 and 1 mM of 5,5′-dithiobis-(2-nitrobenzoic acid) (DTNB), and 100 μM of substrate, the pH being adjusted to 7.0.
The concentrations of inhibitors present in the test samples range from 100 μM to 0.5 nM.
The IC50 values are calculated from a curve in which the percentage of the catalytic activity relative to the control is represented on the X-axis and the concentration of inhibitor is represented on the Y-axis.

Where [1] appears, read: substrate Ac-Pro-Leu-Gly-thioester-Leu-Leu-Gly-OEt 100 μM, pH 7.0, 2.5 nM enzyme, read-out: IC50 values on MMP-13.

Structures can show the parent of a compound that is named as a salt. Where two headings read alike, the source gives them in different places. Some results are limits rather than exact numbers.

For the compound `COc1ccc(CNC(=O)c2ccc3ncn(Cc4ccc(OC)cc4)c(=O)c3c2)cc1` [Example 1, 3-(4-Methoxy-benzyl)-4-oxo-3,4-dihydro-quinazoline-6-carboxylic acid 4-methoxy-benzylamide], the IC50 under setting [1] is less than 1000 nM. Same read-out and setting: next, `COc1ccc(CNC(=O)c2ccc3nc(C)n(Cc4ccc(OC)cc4)c(=O)c3c2)cc1` [Example 2, 3-(4-Methoxy-benzyl)-2-methyl-4-oxo-3,4-dihydro-quinazoline-6-carboxylic acid 4-methoxy-benzylamide, hydrochloride]: less than 1000 nM; `COc1ccc(CNC(=O)c2ccc3c(c2)C(=O)N(Cc2ccc(OC)cc2)CN3C)cc1` [Example 3, 3-(4-Methoxy-benzyl)-1-methyl-4-oxo-1,2,3,4-tetrahydro-quinazoline-6-carboxylic acid 4-methoxy-benzylamide]: less than 1000 nM; `COc1ccc(CNC(=O)c2ccc3c(c2)C(=O)N(Cc2ccc(OC)cc2)C(C)(C)N3C)cc1` [Example 4, 3-(4-Methoxy-benzyl)-1,2,2-trimethyl-4-oxo-1,2,3,4-tetrahydro-quinazoline-6-carboxylic acid 4-methoxy-benzylamide]: less than 1000 nM. Still for that read-out and setting: next, `COc1ccc(CNC(=O)c2ccc3c(c2)C(=O)N(Cc2ccc(C(=O)O)cc2)CN3)cc1` [Example 5, 4-[6-(4-Methoxy-benzylcarbamoyl)-4-oxo-1,4-dihydro-2H-quinazolin-3-ylmethyl]-benzoic acid]: less than 1000 nM. For the compound `COC(=O)c1ccc(CN2CN(C)c3ccc(C(=O)NCc4ccc(OC)cc4)cc3C2=O)cc1` [Example 6, Methyl 4-[6-(4-Methoxy-benzylcarbamoyl)-1-methyl-4-oxo-1,4-dihydro-2H-quinazolin-3-ylmethyl]-benzoate], under setting [1], the IC50 is less than 1000 nM.

Consider `COc1ccc(CNC(=O)c2ccc3c(c2)C(=O)N(Cc2ccc(C(=O)O)cc2)CN3C)cc1` [Example 7, 4-[6-(4-Methoxy-benzylcarbamoyl)-1-methyl-4-oxo-1,4-dihydro-2H-quinazolin-3-ylmethyl]-benzoic acid], for which, under setting [1], the IC50 is less than 1000 nM. `O=c1c2cc(C#CCc3ccccc3)ccc2ncn1Cc1ccc(F)cc1` [Example 8, 3-(4-fluorobenzyl)-6-(3-phenyl-pro-1-ynyl)-3 H-quinazolin-4-one] registered an IC50 of less than 1000 nM. Still for that read-out and setting: next, `COC(=O)c1ccc(Cn2cnc3ccc(C#CCc4ccccc4)cc3c2=O)cc1` [Example 9, Methyl 4-[4-Oxo-6-(3-phenyl-prop-1-ynyl)-4H-quinazolin-3-ylmethyl]-benzoate]: less than 1000 nM. For `COc1cccc(CNC(=O)c2ccc3ncn(Cc4ccc(F)cc4)c(=O)c3c2)c1` [Example 14, 3-(4-Fluoro-benzyl)-4-oxo-3,4-dihydro-quinazoline-6-carboxylic acid 3-methoxy-benzylamide], under setting [1], the IC50 was less than 1000 nM. `COc1ccc(CNC(=O)c2ccc3ncn(Cc4ccc(S(C)(=O)=O)cc4)c(=O)c3c2)cc1` [Example 15]: the IC50 under setting [1] was less than 1000 nM. The same measure, in the same setting: next, `COc1ccc(CNC(=O)c2ccc3ncn(Cc4ccc(S(=O)(=O)N5CCCC5)cc4)c(=O)c3c2)cc1` [Example 16, 4-Oxo-3-[4-(pyrrolidine-1-sulfonyl)-benzyl]-3,4-dihydro-quinazoline-6-carboxylic acid 4-methoxy-benzylamide]: less than 1000 nM; `COc1cccc(CNC(=O)c2ccc3ncn(Cc4ccc(C(=O)O)cc4)c(=O)c3c2)c1` [Example 17, 4-[6-(3-Methoxy-benzylcarbamoyl)-4-oxo-4H-quinazolin-3-ylmethyl]-benzoic acid]: less than 1000 nM.

As for `COc1cc(CNC(=O)c2ccc3ncn(Cc4ccc(F)cc4)c(=O)c3c2)ccn1` [Example 21, 3-(4-Fluoro-benzyl)-4-oxo-3,4-dihydro-quinazoline-6-carboxylic acid (2-methoxy-pyridin-4-ylmethyl)-amide], the IC50 under setting [1] was less than 1000 nM. As to `COc1cccc(CNC(=O)c2cc3c(=O)n(Cc4cccc(F)c4)cnc3cn2)c1` [Example 23, 3-(3-Fluoro-benzyl)-4-oxo-3,4-dihydro-pyrido[3,4-d]pyrimidine-6-carboxylic acid 3-methoxy-benzylamide], under setting [1], the IC50 was less than 1000 nM.

As for `COc1ccc(CNC(=O)c2cc3c(=O)n(Cc4cccc(F)c4)cnc3cn2)cc1` [Example 24, 3-(3-Fluoro-benzyl)-4-oxo-3,4-dihydro-pyrido[3,4-d]pyrimidine-6-carboxylic acid 4-methoxy-benzylamide], under setting [1], the IC50 was less than 1000 nM. Consider `NS(=O)(=O)c1ccc(Cn2cnc3ccc(C#CCc4ccccc4)cc3c2=O)cc1` [Example 59, 4-[4-Oxo-6-(3-phenyl-prop-1-ynyl)-4H-quinazolin-3-ylmethyl]-benzenesulfonamide], for which the IC50 was less than 1000 nM. On the same count and under the same terms, next, `N#Cc1ccc(Cn2cnc3ccc(C#CCc4ccccc4)cc3c2=O)cc1` [Example 60, 4-[4-Oxo-6-(3-phenyl-prop-1-ynyl)-4H-quinazolin-3-ylmethyl]-benzonitrile]: less than 1000 nM.

`O=c1c2cc(C#CCc3ccccc3)ccc2ncn1Cc1cccc(Cl)c1` [Example 62, 3-(3-Chloro-benzyl)-6-(3-phenyl-prop-1-ynyl)-3H-quinazolin-4-one] had an IC50 of less than 1000 nM. For the compound `O=c1c2cc(C#CCOc3ccncc3)ccc2ncn1Cc1ccc(F)c(F)c1` [Example 65, 3-(3,4-Difluoro-benzyl)-6-[3-(pyridin-4-yloxy)-prop-1-ynyl]-3H-quinazolin-4-one], the IC50 under setting [1] is less than 1000 nM.

As for `COc1ccc(CC#Cc2ccc3ncn(Cc4ccc(F)c(F)c4)c(=O)c3c2)cc1` [Example 66, 3-(3,4-Difluoro-benzyl)-6-[3-(4-methoxy-phenyl)-prop-1-ynyl]-3H-quinazolin-4-one], the IC50 under setting [1] was less than 1000 nM. The same measure, in the same setting: next, `CC(=O)Nc1ccc(Cn2cnc3ccc(C#CCc4ccccc4)cc3c2=O)cc1` [Example 67, N-{4-[4-Oxo-6-(3-phenyl-prop-1-ynyl)-4H-quinazolin-3-ylmethyl]-phenyl}-acetamide]: less than 1000 nM. Consider `O=c1c2cc(C#CCc3ccccc3)ccc2ncn1Cc1ccc(F)c(F)c1` [Example 68, 3-(3,4-Difluoro-benzyl)-6-(3-phenyl-prop-1-ynyl)-3H-quinazolin-4-one], for which the IC50 under setting [1] is less than 1000 nM.

In the case of `COc1ccc(CC#Cc2ccc3ncn(Cc4ccc(C(C)=O)cc4)c(=O)c3c2)cc1` [Example 69, 3-(4-Acetyl-benzyl)-6-[3-(4-methoxy-phenyl)-prop-1-ynyl]-3H-quinazolin-4-one], under setting [1], the IC50 is less than 1000 nM.

Regarding `O=c1c2cc(C#CCc3ccccc3)ccc2ncn1Cc1ccncc1` [Example 70, 6-(3-Phenyl-prop-1-ynyl)-3-pyridin-4-ylmethyl-3H-quinazolin-4-one], the IC50 under setting [1] is less than 1000 nM.

`COc1ccc(CC#Cc2ccc3ncn(Cc4ccncc4)c(=O)c3c2)cc1` [Example 71, 6-[3-(4-Methoxy-phenyl)-prop-1-ynyl]-3-pyridin-4-ylmethyl-3H-quinazolin-4-one]: the IC50 under setting [1] was less than 1000 nM. Same read-out and setting: next, `COc1cc(CNC(=O)c2ccc3ncn(Cc4ccc(F)c(F)c4)c(=O)c3c2)ccn1` [Example 104, 3-(3,4-Difluoro-benzyl)-4-oxo-3,4-dihydro-quinazoline-6-carboxylic acid (2-methoxy-pyridin-4-ylmethyl)-amide]: less than 1000 nM; `COc1ccc(CNC(=O)c2ccc3ncn(Cc4ccc(F)c(F)c4)c(=O)c3c2)cc1` [Example 105, 3-(3,4-Difluoro-benzyl)-4-oxo-3,4-dihydro-quinazoline-6-carboxylic acid 4-methoxy-benzylamide]: less than 1000 nM.

In the case of `O=C(O)c1ccc(Cn2cnc3ccc(C#CCN4CCOCC4)cc3c2=O)cc1` [Example 106, 4-[6-(3-Morpholin-4-yl-prop-1-ynyl)-4-oxo-4H-quinazolin-3-ylmethyl]-benzoic acid trifluoroacetic acid salt], the IC50 was no less than 65000 nM. The same measure, in the same setting: next, `O=C(O)c1ccc(Cn2cnc3ccc(C#CCN4CCCCC4)cc3c2=O)cc1` [Example 107, 4-[4-Oxo-6-(3-piperidin-1-yl-prop-1-ynyl)-4H-quinazolin-3-ylmethyl]-benzoic acid trifluoroacetic acid salt]: no less than 65000 nM. In the case of `CN1CCN(CC#Cc2ccc3ncn(Cc4ccc(C(=O)O)cc4)c(=O)c3c2)CC1` [Example 108, 4-{6-[3-(4-Methyl-piperazin-1-yl)-prop-1-ynyl]-4-oxo-4H-quinazolin-3-ylmethyl}-benzoic acid trifluoroacetic acid salt], the IC50 under setting [1] is no less than 65000 nM.

`O=C(O)c1ccc(Cn2cnc3ccc(C#CCN4Cc5ccccc5C4)cc3c2=O)cc1` [Example 109, 4-{6-[3-(1,3-Dihydro-isoindol-2-yl)-prop-1-ynyl]-4-oxo-4H-quinazolin-3-ylmethyl}-benzoic acid trifluoroacetic acid]: under setting [1], the IC50 is less than 1000 nM.

These data come from patent US6747147B2, “Oxo-azabicyclic compounds” (Warner-Lambert Company, priority 2002, dated 2004).
